Experimental data as given in US20060069132A1, “Azolecarboxamide herbicides” (priority 2004, published 2006).

Experiments:
ducksalad = assay: Test B flooded paddy test; format: in vivo, Heteranthera limosa; settings: 1000 g ai/ha, scale 0 to 100 (0 no effect, 100 complete control)
Procedure, shortened: (§1)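 Scale 0–100: zero equals no visible effect, 100 complete control, judged by eye relative to controls. Timing: 13 to 15 days in greenhouse post-treatment. Growth stage at spraying: two leaves (paddy) or one to four leaves, 2–18 cm (postemergence).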

pigweed = assay: Test B pre-/postemergence herbicide test; format: in vivo, Amaranthus retroflexus
Procedure, shortened: (§2)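 Flooded paddy rice and barnyardgrass were treated at the 2-leaf stage; upland plantings received compound either on sown seed or on 1- to 4-leaf seedlings. All were kept 13–15 days in a greenhouse and scored visually, 0–100, relative to untreated plants.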

blackgrass = assay: Test B postemergence herbicide test; format: in vivo, Alopecurus myosuroides
Procedure, shortened: as §1

Surinam grass = assay: Test B pre-/postemergence herbicide test; format: in vivo, Urochloa decumbens
Procedure, shortened: as §2

barnyardgrass [1] = assay: Test B flooded paddy test; format: in vivo, Echinochloa crus-galli; settings: 1000 g ai/ha, scale 0 to 100 (0 no effect, 100 complete control)
Procedure, shortened: as §1

[2] = test system: small flower umbrella sedge; assay: Test B flooded paddy test; format: in vivo, Cyperus difformis; settings: 1000 g ai/ha, scale 0 to 100 (0 no effect, 100 complete control)
Procedure, shortened: as §1

large crabgrass = assay: Test B pre-/postemergence herbicide test; format: in vivo, Digitaria sanguinalis
Procedure, shortened: as §2

cocklebur = assay: Test B pre-/postemergence herbicide test; format: in vivo, Xanthium strumarium
Procedure, shortened: (§3)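 Formulation: non-phytotoxic solvent mix with surfactant. Timing: preemergence on seed and postemergence on 2–18 cm plants, applied concurrently. Readout after 13–15 d greenhouse: visual 0–100 control rating against controls.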

giant foxtail = assay: Test B pre-/postemergence herbicide test; format: in vivo, Setaria faberi
Procedure, shortened: as §2

wheat = assay: Test B postemergence herbicide test; format: in vivo, Triticum aestivum; parameters: key to Wheat plant response rating: 0 = no effect, 100 = complete control
Procedure, shortened: as §1

rice = assay: Test B flooded paddy test; format: in vivo, Oryza sativa; settings: 1000 g ai/ha, scale 0 to 100 (0 no effect, 100 complete control)
Procedure, shortened: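 After treating 2-leaf paddy plants or 2–18 cm postemergence plants (1 to 4 leaves) with formulated chemical, researchers kept them in a greenhouse for 13–15 days. Effects were judged visually versus controls: 0 indicates none, 100 total control.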

corn = assay: Test B pre-/postemergence herbicide test; format: in vivo, Zea mays
Procedure, shortened: as §2

morningglory = assay: Test B pre-/postemergence herbicide test; format: in vivo, Ipomoea coccinea
Procedure, shortened: as §3

wild oat = assay: Test B postemergence herbicide test; format: in vivo, Avena fatua
Procedure, shortened: as §1

barnyardgrass [3] = assay: Test B pre-/postemergence herbicide test; format: in vivo, Echinochloa crus-galli
Procedure, shortened: as §3

lambsquarters = assay: Test B pre-/postemergence herbicide test; format: in vivo, Chenopodium album
Procedure, shortened: as §2

[4] = 125 g ai/ha, 0 is no effect, 100 is complete control, preemergence
[5] = 125 g ai/ha, visual rating, scale 0 (no effect) to 100 (complete control), postemergence
[6] = postemergence, 500 g ai/ha, scale 0 to 100, 0 is no effect, 100 is complete control
[7] = 500 g ai/ha, visual rating, 0 = no effect, 100 = complete control, preemergence
[8] = Postemergence, 500 g ai/ha, visual rating after 13 to 15 days, scale 0 (no effect) to 100 (complete control)
[9] = postemergence, 125 g ai/ha, visual rating, scale 0 (no effect) to 100 (complete control)
[10] = preemergence, 125 g ai/ha, 0 to 100 scale, 0 is no effect, 100 is complete control
[11] = Preemergence, 500 g ai/ha, scale 0 to 100
[12] = Postemergence, 500 g ai/ha, scale 0 (no effect) to 100 (complete control)
[13] = 500 g ai/ha, scale 0 to 100, 0 no effect, 100 complete control, preemergence

CCNC(=O)c1ccc(F)c(NC(=O)c2c3c(nn2CC)C(C)(C)CC3)c1 [Compound 353]
90: Sedge, Umbrella plant response rating [2] | Plant response rating, Barnyardgrass (barnyardgrass [3]; [7])
10: Blackgrass plant response rating (blackgrass; [5]) | Surinam Grass plant response rating (Surinam grass; [6]) | Crabgrass, Large plant response rating (large crabgrass; [5]) | Crabgrass, Large plant response rating (large crabgrass; [6]) | Cocklebur plant response rating (cocklebur; [5]) | Wheat plant response rating (wheat; [6]) | Corn plant response rating (corn; [5]) | Morningglory plant response rating (morningglory; [5]) | Oat, Wild plant response rating (wild oat; [5]) | Barnyardgrass plant response rating (barnyardgrass [3]; [5]) | Barnyardgrass plant response rating (barnyardgrass [3]; [6])
80: Ducksalad plant response rating (ducksalad) | Plant response rating, Crabgrass, Large (large crabgrass; [7])
50: Plant response rating, Foxtail, Giant (giant foxtail; [7])
40: Blackgrass plant response rating (blackgrass; [6]) | Rice plant response rating (rice) | Oat, Wild plant response rating (wild oat; [6]) | Plant response rating (0 to 100 scale), Barnyardgrass (barnyardgrass [3]; [4]) | Lambsquarters plant response rating (lambsquarters; [6])
20: Plant response rating (0 to 100 scale), Crabgrass, Large (large crabgrass; [4]) | Plant response rating, Cocklebur (cocklebur; [7]) | Cocklebur plant response rating (cocklebur; [6]) | Foxtail, Giant plant response rating (giant foxtail; [5]) | Corn plant response rating (corn; [6]) | Plant response rating, Morningglory (morningglory; [7]) | Lambsquarters plant response rating (lambsquarters; [5])
30: Pigweed plant response rating (pigweed; [5]) | Plant response rating, Surinam Grass (Surinam grass; [7]) | Foxtail, Giant plant response rating (giant foxtail; [6])
0: Plant response rating (0 to 100 scale), Pigweed (pigweed; [4]) | Plant response rating (0 to 100 scale), Surinam Grass (Surinam grass; [4]) | Surinam Grass plant response rating (Surinam grass; [5]) | Plant response rating (0 to 100 scale), Cocklebur (cocklebur; [4]) | Plant response rating (0 to 100 scale), Foxtail, Giant (giant foxtail; [4]) | Wheat plant response rating (wheat; [5])
70: Pigweed plant response rating (pigweed; [6]) | Barnyardgrass plant response rating (barnyardgrass [1])

CCn1nc(C(C)(C)C)cc1C(=O)Nc1cccc2c1CCN(C1CC1)C2=O [Compound 64]
0: Blackgrass plant response rating (blackgrass; [9]) | Cocklebur plant response rating (cocklebur; [11]) | Plant response rating, Cocklebur (cocklebur; [10]) | Wheat plant response rating (wheat; [9]) | Corn plant response rating (corn; [11]) | Plant response rating, Corn (corn; [10]) | Morningglory plant response rating (morningglory; [9]) | Plant response rating, Morningglory (morningglory; [10])
70: Plant response rating, Lambsquarters (lambsquarters; [8]) | Lambsquarters plant response rating (lambsquarters; [9])
20: Pigweed plant response rating (pigweed; [9]) | Plant response rating, Crabgrass, Large (large crabgrass; [10]) | Plant response rating, Corn (corn; [8]) | Plant response rating, Morningglory (morningglory; [8]) | Plant response rating, Oat, Wild (wild oat; [8]) | Oat, Wild plant response rating (wild oat; [9])
100: Plant response rating, Pigweed (pigweed; [10]) | Crabgrass, Large plant response rating (large crabgrass; [11]) | Foxtail, Giant plant response rating (giant foxtail; [11])
90: Ducksalad plant response rating (ducksalad; visual rating, 13 to 15 days) | Sedge, Umbrella plant response rating ([2]; visual rating, 13 to 15 days) | Barnyardgrass plant response rating (barnyardgrass [3]; [11])
60: Plant response rating, Lambsquarters (lambsquarters; [10])
30: Barnyardgrass plant response rating (barnyardgrass [1]; visual rating, 13 to 15 days) | Cocklebur plant response rating (cocklebur; [9])
10: Plant response rating, Blackgrass (blackgrass; [8]) | Plant response rating, Surinam Grass (Surinam grass; [8]) | Surinam Grass plant response rating (Surinam grass; [9]) | Plant response rating, Surinam Grass (Surinam grass; [10]) | Plant response rating, Crabgrass, Large (large crabgrass; [8]) | Crabgrass, Large plant response rating (large crabgrass; [9]) | Plant response rating, Foxtail, Giant (giant foxtail; [8]) | Foxtail, Giant plant response rating (giant foxtail; [9]) | Plant response rating, Foxtail, Giant (giant foxtail; [10]) | Plant response rating, Wheat (wheat; [8]) | Corn plant response rating (corn; [9]) | Plant response rating, Barnyardgrass (barnyardgrass [3]; [8]) | Barnyardgrass plant response rating (barnyardgrass [3]; [9])
50: Plant response rating, Pigweed (pigweed; [8]) | Plant response rating, Cocklebur (cocklebur; [8]) | Rice plant response rating (rice; visual rating, 13 to 15 days) | Plant response rating, Barnyardgrass (barnyardgrass [3]; [10])

CCc1nn(C(C)(C)C)nc1C(=O)Nc1cccc(C(=S)N(C)C)c1 [Compound 395]
90: Ducksalad plant response rating (ducksalad) | Plant response rating (0 to 100 scale), Surinam Grass (Surinam grass; [4]) | Barnyardgrass plant response rating (barnyardgrass [1]) | Sedge, Umbrella plant response rating [2] | Plant response rating (0 to 100 scale), Corn (corn; [4]) | Plant response rating (0 to 100 scale), Barnyardgrass (barnyardgrass [3]; [4])
20: Blackgrass plant response rating (blackgrass; [5]) | Surinam Grass plant response rating (Surinam grass; [5]) | Crabgrass, Large plant response rating (large crabgrass; [5]) | Wheat plant response rating (wheat; [5]) | Barnyardgrass plant response rating (barnyardgrass [3]; [5])
60: Pigweed plant response rating (pigweed; [12]) | Surinam Grass plant response rating (Surinam grass; [12]) | Plant response rating (0 to 100 scale), Cocklebur (cocklebur; [4]) | Corn plant response rating (corn; [12])
40: Pigweed plant response rating (pigweed; [5]) | Blackgrass plant response rating (blackgrass; [12]) | Morningglory plant response rating (morningglory; [5]) | Oat, Wild plant response rating (wild oat; [5]) | Oat, Wild plant response rating (wild oat; [12])
50: Crabgrass, Large plant response rating (large crabgrass; [12]) | Foxtail, Giant plant response rating (giant foxtail; [12])
30: Foxtail, Giant plant response rating (giant foxtail; [5]) | Wheat plant response rating (wheat; [12]) | Corn plant response rating (corn; [5])
100: Plant response rating (0 to 100 scale), Pigweed (pigweed; [4]) | Plant response rating (0 to 100 scale), Crabgrass, Large (large crabgrass; [4]) | Plant response rating (0 to 100 scale), Foxtail, Giant (giant foxtail; [4]) | Wheat plant response rating (wheat; [13]) | Plant response rating (0 to 100 scale), Lambsquarters (lambsquarters; [4]) | Lambsquarters plant response rating (lambsquarters; [12])
70: Cocklebur plant response rating (cocklebur; [5]) | Barnyardgrass plant response rating (barnyardgrass [3]; [12])
80: Cocklebur plant response rating (cocklebur; [12]) | Rice plant response rating (rice) | Plant response rating (0 to 100 scale), Morningglory (morningglory; [4]) | Morningglory plant response rating (morningglory; [12]) | Lambsquarters plant response rating (lambsquarters; [5])

CCNC(=O)c1cccc(NC(=O)c2nn(C(C)(C)C)nc2C)c1 [Compound 392]
0: Wheat plant response rating (wheat; [5]) | Corn plant response rating (corn; [5]) | Oat, Wild plant response rating (wild oat; [5])
20: Blackgrass plant response rating (blackgrass; [5]) | Surinam Grass plant response rating (Surinam grass; [12]) | Crabgrass, Large plant response rating (large crabgrass; [12]) | Cocklebur plant response rating (cocklebur; [5]) | Foxtail, Giant plant response rating (giant foxtail; [5]) | Corn plant response rating (corn; [12]) | Morningglory plant response rating (morningglory; [5]) | Barnyardgrass plant response rating (barnyardgrass [3]; [12])
10: Surinam Grass plant response rating (Surinam grass; [5]) | Crabgrass, Large plant response rating (large crabgrass; [5]) | Wheat plant response rating (wheat; [12]) | Barnyardgrass plant response rating (barnyardgrass [3]; [5])
70: Plant response rating (0 to 100 scale), Surinam Grass (Surinam grass; [4]) | Plant response rating (0 to 100 scale), Corn (corn; [4]) | Morningglory plant response rating (morningglory; [12]) | Lambsquarters plant response rating (lambsquarters; [5])
30: Foxtail, Giant plant response rating (giant foxtail; [12]) | Oat, Wild plant response rating (wild oat; [12])
60: Pigweed plant response rating (pigweed; [5]) | Pigweed plant response rating (pigweed; [12]) | Blackgrass plant response rating (blackgrass; [12])
90: Barnyardgrass plant response rating (barnyardgrass [1]) | Plant response rating (0 to 100 scale), Morningglory (morningglory; [4]) | Plant response rating (0 to 100 scale), Barnyardgrass (barnyardgrass [3]; [4]) | Lambsquarters plant response rating (lambsquarters; [12])
40: Plant response rating (0 to 100 scale), Cocklebur (cocklebur; [4]) | Cocklebur plant response rating (cocklebur; [12])
80: Ducksalad plant response rating (ducksalad) | Sedge, Umbrella plant response rating [2] | Plant response rating (0 to 100 scale), Foxtail, Giant (giant foxtail; [4]) | Rice plant response rating (rice)
100: Plant response rating (0 to 100 scale), Pigweed (pigweed; [4]) | Plant response rating (0 to 100 scale), Crabgrass, Large (large crabgrass; [4]) | Wheat plant response rating (wheat; [13]) | Plant response rating (0 to 100 scale), Lambsquarters (lambsquarters; [4])
